From patent US10246462B2, “Chemokine receptor modulators and uses thereof” (FLX Bio, Inc., priority 2016, dated 2019)
Where a name gives a salt, the structure may show the parent alone.

Molecular target: CCR4 (Homo sapiens (Human), UniProt P51679)
Assay: Calcium mobilization (Ca Flux) assay
Assay type: cell-based
Experimental: Calcium Mobilization Assay. Calcium mobilization experiments may be performed by labeling the human T-cell line CEM with […] dye (45 min at room temperature), washing with PBS, and re-suspending into flux buffer (HBSS with 1% FBS).

Sequence of CCR4 (P51679 whole entry): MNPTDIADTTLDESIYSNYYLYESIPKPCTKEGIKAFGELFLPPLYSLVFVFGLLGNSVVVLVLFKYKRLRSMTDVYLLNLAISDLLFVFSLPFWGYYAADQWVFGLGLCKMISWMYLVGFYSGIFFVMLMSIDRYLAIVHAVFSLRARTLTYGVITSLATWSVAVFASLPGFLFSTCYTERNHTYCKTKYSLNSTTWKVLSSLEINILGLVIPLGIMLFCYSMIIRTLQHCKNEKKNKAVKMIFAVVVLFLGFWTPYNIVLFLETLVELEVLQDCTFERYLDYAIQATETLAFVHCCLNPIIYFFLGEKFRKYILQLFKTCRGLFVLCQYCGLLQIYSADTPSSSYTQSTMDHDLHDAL

Row | IC50 | Structure (SMILES)
1 | 100 to 500 nM | Cc1nn([C@H](C)c2ccc(Cl)cc2Cl)c2nc(C3=CC[C@H](N4CCC[C@H]4C(N)=O)[C@H](C)C3)cnc12 [Example 86, (S)-1-((1S,6R)-4-(1-((R)-1-(2,4-Dichlorophenyl)ethyl)-3-methyl-1H-pyrazolo[3,4-b]pyrazin-6-yl)-6-methylcyclohex-3-en-1-yl)pyrrolidine-2-carboxamide hydrochloride]
2 | < 100 nM | C[C@@H]1CC(c2cnc3c(C#N)nn([C@H](C)c4ccc(Cl)cc4Cl)c3n2)=CCC1N1CCC[C@H]1C(O)CS(C)(=O)=O (stereo partly drawn) [Example 87, 1-((R)-1-(2,4-Dichlorophenyl)ethyl)-6-((4S,5R)-4-((2S)-2-(1-hydroxy-2-(methylsulfonyl)ethyl)pyrrolidin-1-yl)-5-methylcyclohex-1-en-1-yl)-1H-pyrazolo[3,4-b]pyrazine-3-carbonitrile hydrochloride]
3 | 100 to 500 nM | CC1CC(c2cnc3c(C(F)(F)F)nn([C@H](C)c4ccc(Cl)cc4Cl)c3n2)=CCC1N1CCC[C@H]1C (stereo partly drawn) [Example 88, 1-((R)-1-(2,4-Dichlorophenyl)ethyl)-6-(5-methyl-4-((R)-2-methylpyrrolidin-1-yl)cyclohex-1-en-1-yl)-3-(trifluoromethyl)-1H-pyrazolo[3,4-b]pyrazine trifluoroacetic acid]
4 | 100 to 500 nM | CC1CC(c2cnc3c(C(F)(F)F)nn([C@H](C)c4ccc(Cl)cc4Cl)c3n2)=CCC1N1CCC[C@H]1CO (stereo partly shown) [Example 89]
5 | < 100 nM | C[C@@H]1CN(c2cnc3c(C#N)nn([C@H](C)c4ccc(Cl)cc4F)c3n2)CC[C@@H]1N1CCC[C@H]1CCC(=O)O [Example 90, 3-((S)-1-((3R,4S)-1-(1-((R)-1-(4-chloro-2-fluorophenyl)ethyl)-3-cyano-1H-pyrazolo[3,4-b]pyrazin-6-yl)-3-methylpiperidin-4-yl)pyrrolidin-2-yl)propanoic acid hydrochloric acid]
6 | 100 to 500 nM | CNC(=O)[C@@H]1CCCN1[C@H]1CC=C(c2cnc3c(C#N)nn([C@H](C)c4ccc(Cl)cc4Cl)c3n2)C[C@H]1C [Example 91, (S)-1-((1S,6R)-4-(3-Cyano-1-((R)-1-(2,4-dichlorophenyl)ethyl)-1H-pyrazolo[3,4-b]pyrazin-6-yl)-6-methylcyclohex-3-en-1-yl)-N-methylpyrrolidine-2-carboxamide trifluoroacetate]
7 | 100 to 500 nM | CCN(CC1(O)COC1)C1CC=C(c2cnc3c(C#N)nn([C@H](C)c4ccc(Cl)cc4Cl)c3n2)CC1C (stereo partly drawn) [Example 92, 1-((R)-1-(2,4-dichlorophenyl)ethyl)-6-(4-(ethyl((3-hydroxyoxetan-3-yl)methyl)amino)-5-methylcyclohex-1-en-1-yl)-1H-pyrazolo[3,4-b]pyrazine-3-carbonitrile]
